According to ChEMBL document CHEMBL1795288, “Lignans and neolignans from Sinocalamus affinis and their absolute configurations” (2011):
Active and inactive are the calls of the source. The rule behind the calls is not given here.

What was measured:
WB-F344 = experiment: Hepatoprotective activity against DL-galactosamine-induced cell damage in rat WB-F344 cells at 10 uM after 24 hrs by MTT assay; type: functional, cell-based
MCF7 = experiment: Cytotoxicity against human MCF7 cells at 10 uM after 96 hrs by MTT assay; type: functional, cell-based
A549 = experiment: Cytotoxicity against human A549 cells at 10 uM after 96 hrs by MTT assay; type: functional, cell-based
HCT-8 = experiment: Cytotoxicity against human HCT8 cells at 10 uM after 96 hrs by MTT assay; type: functional, cell-based
[1] = tested on: Peritoneal macrophage cell; experiment: Inhibition of LPS-induced nitric oxide production in C57BL/6J mouse peritoneal macrophages at 10 uM after 24 hrs by Griess reaction; type: functional
KETR3 = experiment: Cytotoxicity against human Ketr3 cells at 10 uM after 96 hrs by MTT assay; type: functional, cell-based
Liver microsomes = experiment: Antioxidant activity in rat Liver microsome assessed as inhibition of Fe2+-cystine-induced lipid peroxidation at 10 uM; type: functional
BGC-823 = experiment: Cytotoxicity against human BGC823 cells at 10 uM after 96 hrs by MTT assay; type: functional, cell-based
Bel-7402 = experiment: Cytotoxicity against human Bel7402 cells at 10 uM after 96 hrs by MTT assay; type: functional, cell-based
[2] = tested on: Human immunodeficiency virus 1; experiment: Antiviral activity against HIV1 NL4-3 infected in human 293T cells assessed as inhibition of viral replication at 10 uM after 48 hrs by luciferase reporter gene assay; type: functional, organism-based
PC-12 = experiment: Neuroprotective activity against serum deprivation-induced toxicity in rat PC12 cells assessed as increase in cell viability at 10 uM after 48 hrs by MTT assay; type: functional

In the case of COc1cc([C@@H]2O[C@@H](c3cc(OC)c(OC)c(OC)c3)[C@H](CO)[C@H]2CO)cc(OC)c1O, the Activity (WB-F344) is reported as “inactive”, the Activity (MCF7) is reported as “inactive” and the Activity (A549) is reported as “inactive”. The Activity (HCT-8) was “inactive”, the inhibition at 10 µM [1] was less than 30% and the Activity (KETR3) was “inactive”. For the same compound, the inhibition (Liver microsomes) was “inactive”, the Activity (BGC-823) was “inactive” and the Activity (Bel-7402) was “inactive”. For the same compound, the inhibition [2] was “inactive”.

COc1cc2c(c(OC)c1O)[C@H]1c3c(cc(OC)c(O)c3OC)OC[C@@H](C2)[C@H]1CO was tested, and the Activity (WB-F344) was “inactive”, the Activity (MCF7) was “inactive” and the Activity (A549) was “inactive”. The Activity (HCT-8) was “inactive”, the inhibition at 10 µM [1] was less than 30% and the Activity (KETR3) was “inactive”. For the same compound, the inhibition (Liver microsomes) was “inactive”, the Activity (BGC-823) was “inactive” and the Activity (Bel-7402) was “inactive”. The inhibition [2] was “inactive”.

For COc1cc([C@H](O)[C@@H](CO)Oc2c(OC)cc([C@@H]3Oc4c(OC)cc(C=O)cc4[C@H]3CO)cc2OC)ccc1O, the Activity (WB-F344) was “inactive”, the Activity (MCF7) was “inactive” and the Activity (A549) was “inactive”. The Activity (HCT-8) was “inactive”, the inhibition at 10 µM [1] was less than 30% and the Activity (KETR3) was “inactive”. For the same compound, the inhibition (Liver microsomes) was “inactive”, the Activity (BGC-823) was “inactive” and the Activity (Bel-7402) was “inactive”. The inhibition [2] was “inactive”.

For COc1cc([C@H](O)[C@H](CO)Oc2c(OC)cc(C(=O)O)cc2OC)ccc1O, the Activity (WB-F344) was “inactive”, the Activity (MCF7) was “inactive” and the Activity (A549) was “inactive”. For the same compound, the Activity (HCT-8) was “inactive”, the inhibition at 10 µM [1] was less than 30% and the Activity (KETR3) was “inactive”. For the same compound, the inhibition (Liver microsomes) was “inactive”, the Activity (BGC-823) was “inactive” and the Activity (Bel-7402) was “inactive”. The inhibition [2] was “inactive”.

For COc1cc([C@H](O)[C@H](CO)Oc2c(OC)cc(O)cc2OC)ccc1O, the Activity (WB-F344) was “inactive”, the Activity (MCF7) was “inactive” and the Activity (A549) was “inactive”. For the same compound, the Activity (HCT-8) was “inactive”, the inhibition at 10 µM [1] was less than 30% and the Activity (KETR3) was “inactive”. For the same compound, the inhibition (Liver microsomes) was “inactive”, the Activity (BGC-823) was “inactive” and the Activity (Bel-7402) was “inactive”. The inhibition [2] was “inactive”.

With COc1cc([C@@H](O)[C@H](CO)Oc2c(OC)cc(-c3cc(=O)c4c(O)cc(O)cc4o3)cc2OC)ccc1O the Activity (WB-F344) was “inactive”, the Activity (MCF7) was “inactive” and the Activity (A549) was “inactive”. For the same compound, the Activity (HCT-8) was “inactive”, the inhibition at 10 µM [1] was less than 30% and the Activity (KETR3) was “inactive”. The inhibition (Liver microsomes) was “inactive”, the Activity (BGC-823) was “inactive” and the Activity (Bel-7402) was “inactive”. For the same compound, the inhibition [2] was “inactive”.

COc1cc([C@@H]2Oc3c(OC)cc(/C=C/CO)cc3[C@H]2CO)cc(OC)c1OC was tested, and the Activity (WB-F344) was “inactive”, the Activity (MCF7) was “inactive” and the Activity (A549) was “inactive”. The Activity (HCT-8) was “inactive”, the inhibition at 10 µM [1] was less than 30% and the Activity (KETR3) was “inactive”. The inhibition (Liver microsomes) was “inactive”, the Activity (BGC-823) was “inactive” and the Activity (Bel-7402) was “inactive”. For the same compound, the inhibition [2] was “inactive”.

With COc1cc([C@H](O)[C@H](CO)Oc2c(OC)cc([C@@H]3OC[C@@H]4[C@H]3CO[C@H]4c3cc(OC)c(O[C@@H](CO)[C@@H](O)c4ccc(O)c(OC)c4)c(OC)c3)cc2OC)ccc1O the Activity (WB-F344) was “inactive”, the Activity (MCF7) was “inactive” and the Activity (A549) was “inactive”. The Activity (HCT-8) was “inactive”, the inhibition at 10 µM [1] was less than 30% and the Activity (KETR3) was “inactive”. The inhibition (Liver microsomes) was “inactive”, the Activity (BGC-823) was “inactive” and the Activity (Bel-7402) was “inactive”. The inhibition [2] was “inactive”.

COc1cc(-c2cc(=O)c3c(O)cc(O)cc3o2)cc(OC)c1O[C@@H](CO)[C@H](O)c1ccc(O)cc1 was tested, and the Activity (WB-F344) was “inactive”, the Activity (MCF7) was “inactive” and the Activity (A549) was “inactive”. The Activity (HCT-8) was “inactive”, the inhibition at 10 µM [1] was less than 30% and the Activity (KETR3) was “inactive”. For the same compound, the inhibition (Liver microsomes) was “inactive”, the Activity (BGC-823) was “inactive” and the Activity (PC-12) was 80.7%. For the same compound, the Activity (Bel-7402) was “inactive” and the inhibition [2] was “inactive”.

COc1cc(-c2cc(=O)c3c(O)cc(O)cc3o2)cc(OC)c1O[C@@H](CO)[C@@H](O)c1ccc(O)cc1 was tested, and the Activity (WB-F344) was “inactive”, the Activity (MCF7) was “inactive” and the Activity (A549) was “inactive”. The Activity (HCT-8) was “inactive”, the inhibition at 10 µM [1] was 84.2% and the Activity (KETR3) was “inactive”. For the same compound, the inhibition (Liver microsomes) was “inactive”, the Activity (BGC-823) was “inactive” and the Activity (PC-12) was 107.2%. For the same compound, the Activity (Bel-7402) was “inactive” and the inhibition [2] was “inactive”.

C[C@@H]1C[C@H]2[C@@H]3CCC4=CC(=O)C=C[C@]4(C)[C@@]3(F)[C@@H](O)C[C@]2(C)[C@@]1(O)C(=O)CO [DEXAMETHASONE] gave an inhibition at 10 µM [1] of 61.6%.

In the case of COc1cc([C@H](O)[C@H](CO)Oc2c(OC)cc(-c3cc(=O)c4c(O)cc(O)cc4o3)cc2OC)ccc1O [SALCOLIN B], the Activity (WB-F344) is reported as “inactive”, the Activity (MCF7) is reported as “inactive” and the Activity (A549) is reported as “inactive”. For the same compound, the Activity (HCT-8) was “inactive”, the inhibition at 10 µM [1] was 71.7% and the Activity (KETR3) was “inactive”. For the same compound, the inhibition (Liver microsomes) was “inactive”, the Activity (BGC-823) was “inactive” and the Activity (PC-12) was 97.6%. The Activity (Bel-7402) was “inactive” and the inhibition [2] was “inactive”.

With COc1cc([C@@H]2OC[C@@H]3[C@H]2CO[C@H]3c2cc(OC)c(OC)c(OC)c2)cc(OC)c1O the Activity (WB-F344) was “inactive”, the Activity (MCF7) was “inactive” and the Activity (A549) was “inactive”. The Activity (HCT-8) was “inactive”, the inhibition at 10 µM [1] was less than 30% and the Activity (KETR3) was “inactive”. For the same compound, the inhibition (Liver microsomes) was “inactive”, the Activity (BGC-823) was “inactive” and the Activity (Bel-7402) was “inactive”. The inhibition [2] was “inactive”.

In the case of COc1cc(C(=O)[C@@H]2CO[C@H](c3cc(OC)c(O)c(OC)c3)[C@H]2CO)cc(OC)c1O, the Activity (WB-F344) is reported as “inactive”, the Activity (MCF7) is reported as “inactive” and the Activity (A549) is reported as “inactive”. The Activity (HCT-8) was “inactive”, the inhibition at 10 µM [1] was less than 30% and the Activity (KETR3) was “inactive”. For the same compound, the inhibition (Liver microsomes) was “inactive”, the Activity (BGC-823) was “inactive” and the Activity (Bel-7402) was “inactive”. The inhibition [2] was “inactive”.

For COc1cc([C@@H](O)[C@H](CO)Oc2c(OC)cc([C@@H]3OC[C@@H]4[C@H]3CO[C@H]4c3cc(OC)c(O[C@@H](CO)[C@H](O)c4ccc(O)c(OC)c4)c(OC)c3)cc2OC)ccc1O, the Activity (WB-F344) was “inactive”, the Activity (MCF7) was “inactive” and the Activity (A549) was “inactive”. The Activity (HCT-8) was “inactive”, the inhibition at 10 µM [1] was less than 30% and the Activity (KETR3) was “inactive”. The inhibition (Liver microsomes) was “inactive”, the Activity (BGC-823) was “inactive” and the Activity (Bel-7402) was “inactive”. The inhibition [2] was “inactive”.
